What follows are compounds tested against T1, human DLK (Homo sapiens, UniProt Q12852) (assay: DLK Kd Determinations (KINOMEscan KdELECT, DiscoveRx)). Settings: fusion protein of full length human DLK (amino acids 1-859) and NFkB DNA binding domain; qPCR readout; duplicate.
T1 sequence (Q12852 1-859): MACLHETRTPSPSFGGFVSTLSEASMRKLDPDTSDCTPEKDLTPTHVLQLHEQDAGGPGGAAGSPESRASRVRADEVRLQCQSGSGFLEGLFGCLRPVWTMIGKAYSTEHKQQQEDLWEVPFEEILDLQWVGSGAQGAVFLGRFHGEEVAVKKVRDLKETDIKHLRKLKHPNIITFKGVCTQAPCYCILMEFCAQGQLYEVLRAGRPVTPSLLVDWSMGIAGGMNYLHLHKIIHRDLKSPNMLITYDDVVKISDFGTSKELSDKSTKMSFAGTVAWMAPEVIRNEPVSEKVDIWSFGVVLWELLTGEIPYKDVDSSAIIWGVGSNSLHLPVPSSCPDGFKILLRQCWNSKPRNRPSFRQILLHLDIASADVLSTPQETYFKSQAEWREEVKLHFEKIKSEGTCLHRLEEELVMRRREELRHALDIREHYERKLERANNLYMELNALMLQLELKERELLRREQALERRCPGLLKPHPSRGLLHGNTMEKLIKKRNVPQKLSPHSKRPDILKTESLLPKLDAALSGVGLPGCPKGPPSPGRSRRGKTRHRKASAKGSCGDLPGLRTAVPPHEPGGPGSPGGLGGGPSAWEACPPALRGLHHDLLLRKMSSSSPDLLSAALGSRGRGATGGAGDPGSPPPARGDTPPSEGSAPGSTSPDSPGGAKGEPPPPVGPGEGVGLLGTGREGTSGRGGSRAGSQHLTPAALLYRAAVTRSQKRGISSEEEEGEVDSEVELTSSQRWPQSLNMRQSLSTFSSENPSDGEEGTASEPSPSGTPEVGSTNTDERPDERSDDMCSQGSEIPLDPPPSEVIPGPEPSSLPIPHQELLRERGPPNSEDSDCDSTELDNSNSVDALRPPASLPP
Set-up: full length of human DLK (amino acids 1-859); host or cells: transiently transfected HEK293 cells; unpurified extract
Procedure, shortened: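 Kd values were fitted by Hill equation (slope −1) from duplicate 11-point 3-fold dilutions starting at 30,000 nM. Bead-immobilized ligand competed with compound for DNA-tagged full-length human DLK fusion in HEK293 extract (final DMSO 0.9%, 1 h, room temperature), with qPCR readout of bound kinase.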
`CC(C)c1nc(-c2cnc(N)c(OC(F)(F)F)c2)cn1[C@H]1[C@@H]2CN(CC(F)(F)F)C[C@@H]21` [Example 110, 5-(2-isopropyl-1-((1R,5S,6s)-3-(2,2,2-trifluoroethyl)-3-azabicyclo[3.1.0]hexan-6-yl)-1H-imidazol-4-yl)-3-(trifluoromethoxy)pyridin-2-amine] was tested, and the Kd was 280 nM.
For `Nc1ncc(-c2cn([C@H]3[C@@H]4CN(CC(F)(F)F)C[C@@H]43)c(CC(F)(F)F)n2)cc1C(F)(F)F` [Example 124, 5-(2-(2,2,2-trifluoroethyl)-1-((1R,5S,6s)-3-(2,2,2-trifluoroethyl)-3-azabicyclo[3.1.0]hexan-6-yl)-1H-imidazol-4-yl)-3-(trifluoromethyl)pyridin-2-amine], the Kd was 240 nM.
`Nc1ncc(-c2cn([C@H]3[C@@H]4CN(C5COC5)C[C@@H]43)c(C3CC3)n2)cc1OC(F)F` [Example 104, 5-(2-cyclopropyl-1-((1R,5S,6s)-3-(oxetan-3-yl)-3-azabicyclo[3.1.0]hexan-6-yl)-1H-imidazol-4-yl)-3-(difluoromethoxy)pyridin-2-amine] showed a Kd of 66 nM.
With `CC(C)c1nc(-c2cnc(N)c(C(F)(F)F)c2)cn1[C@H]1[C@@H]2CNC[C@@H]21` [Example 11, 5-(1-(3-azabicyclo[3.1.0]hexan-6-yl)-2-isopropyl-1H-imidazol-4-yl)-3-(trifluoromethyl)pyridin-2-amine] the Kd was 120 nM.
Compound `Nc1ncc(-c2cn([C@H]3[C@@H]4CN(C5COC5)C[C@@H]43)c(C3CCCC3)n2)cc1OC(F)(F)F` [Example 63, 5-(2-cyclopentyl-1-((1R,5S,6s)-3-(oxetan-3-yl)-3-azabicyclo[3.1.0]hexan-6-yl)-1H-imidazol-4-yl)-3-(trifluoromethoxy)pyridin-2-amine] has a Kd of 140 nM.
For `Nc1ncc(-c2cn([C@H]3[C@@H]4CN(C5COC5)C[C@@H]43)c(C3CCC3)n2)cc1C(F)(F)F` [Example 51, 5-(2-cyclobutyl-1-((1R,5S,6s)-3-(oxetan-3-yl)-3-azabicyclo[3.1.0]hexan-6-yl)-1H-imidazol-4-yl)-3-(trifluoromethyl)pyridin-2-amine], the Kd was 130 nM.
Work on `Nc1ncc(-c2cn(C3CC3)c(CC3CC3)n2)cc1C(F)(F)F` [Example 47, 5-(1-cyclopropyl-2-(cyclopropylmethyl)-1H-imidazol-4-yl)-3-(trifluoromethyl)pyridin-2-amine] yielded a Kd of 120 nM.
With `Nc1ncc(-c2cn([C@H]3[C@@H]4CN(C5COC5)C[C@@H]43)c(CC3CC3)n2)cc1OC(F)F` [Example 87, 5-(2-(cyclopropylmethyl)-1-((1R,5S,6s)-3-(oxetan-3-yl)-3-azabicyclo[3.1.0]hexan-6-yl)-1H-imidazol-4-yl)-3-(difluoromethoxy)pyridin-2-amine] the Kd was 110 nM.
Compound `Nc1ncc(-c2cn([C@H]3[C@@H]4CN(CC(F)(F)F)C[C@@H]43)c(C3CC3)n2)cc1OC(F)(F)F` [Example 70, 5-(2-cyclopropyl-1-((1R,5S,6s)-3-(2,2,2-trifluoroethyl)-3-azabicyclo[3.1.0]hexan-6-yl)-1H-imidazol-4-yl)-3-(trifluoromethoxy)pyridin-2-amine] has a Kd of 510 nM.
Work on `CC(C)c1nc(-c2cnc(N)c(C(F)(F)F)c2)cn1CCC1CCOCC1` [Example 35, 5-(2-isopropyl-1-(2-(tetrahydro-2H-pyran-4-yl)ethyl)-1H-imidazol-4-yl)-3-(trifluoromethyl)pyridin-2-amine] yielded a Kd of 160 nM.
Compound `CC(C)c1nc(-c2cnc(N)c(OC(F)(F)F)c2)cn1[C@H]1[C@@H]2CN(CCF)C[C@@H]21` [Example 111, 5-(1-((1R,5S,6s)-3-(2-fluoroethyl)-3-azabicyclo[3.1.0]hexan-6-yl)-2-isopropyl-1H-imidazol-4-yl)-3-(trifluoromethoxy)pyridin-2-amine] has a Kd of 100 nM.
`CC(C)c1nc(-c2cnc(N)c(C(F)(F)F)c2)cn1C1CC(N2CCOCC2)C1` (centres unmarked) [Example 37, 5-(2-isopropyl-1-(3-morpholinocyclobutyl)-1H-imidazol-4-yl)-3-(trifluoromethyl)pyridin-2-amine] showed a Kd of 92 nM.
Compound `CC(C)c1nc(-c2cnc(N)c(C(F)(F)F)c2)cn1[C@H]1[C@@H]2CN(C3COC3)C[C@@H]21` [Example 12, 5-(2-isopropyl-1-((1R,5S,6s)-3-(oxetan-3-yl)-3-azabicyclo[3.1.0]hexan-6-yl)-1H-imidazol-4-yl)-3-(trifluoromethyl)pyridin-2-amine] has a Kd of 47 nM.
`Nc1ncc(-c2cn3c(n2)COCC3)cc1C(F)(F)F` [Example 10, 5-(5,6-dihydro-8H-imidazo[2,1-c][1,4]oxazin-2-yl)-3-(trifluoromethyl)pyridin-2-amine] was tested, and the Kd was 840 nM.
Compound `CC(C)c1nc(-c2cnc(N)c(OC(F)F)c2)cn1[C@H]1[C@@H]2CN(C3CCOCC3)C[C@@H]21` [Example 60, 3-(difluoromethoxy)-5-(2-isopropyl-1-((1R,5S,6s)-3-(tetrahydro-2H-pyran-4-yl)-3-azabicyclo[3.1.0]hexan-6-yl)-1H-imidazol-4-yl)pyridin-2-amine] has a Kd of 180 nM.
Work on `CC(C)c1nc(-c2cnc(N)c(C(F)(F)F)c2)cn1C1CCN(C2COC2)C1` (centres unmarked) [Example 36, 5-(2-isopropyl-1-(1-(oxetan-3-yl)pyrrolidin-3-yl)-1H-imidazol-4-yl)-3-(trifluoromethyl)pyridin-2-amine] yielded a Kd of 350 nM.
In the case of `CC(C)c1nc(-c2cnc(N)c(OC(F)(F)F)c2)cn1[C@H]1[C@@H]2CNC[C@@H]21` [Example 58, 5-(1-((1R,5S,6s)-3-azabicyclo[3.1.0]hexan-6-yl)-2-isopropyl-1H-imidazol-4-yl)-3-(trifluoromethoxy)pyridin-2-amine], the Kd is reported as 94 nM.
Compound `Nc1ncc(-c2cn(CC3CC3)c([C@H]3[C@@H]4CN(C5COC5)C[C@@H]43)n2)cc1C(F)(F)F` [Example 1, 5-(1-(cyclopropylmethyl)-2-((1R,5S,6r)-3-(oxetan-3-yl)-3-azabicyclo[3.1.0]hexan-6-yl)-1H-imidazol-4-yl)-3-(trifluoromethyl)pyridin-2-amine] has a Kd of 140 nM.
`Nc1ncc(-c2cn([C@H]3[C@@H]4CN(CC(F)F)C[C@@H]43)c(CC3CC3)n2)cc1C(F)(F)F` [Example 61, 5-(2-(cyclopropylmethyl)-1-((1R,5S,6s)-3-(2,2-difluoroethyl)-3-azabicyclo[3.1.0]hexan-6-yl)-1H-imidazol-4-yl)-3-(trifluoromethyl)pyridin-2-amine] showed a Kd of 140 nM.
Work on `CC(=O)N1C[C@@H]2[C@H](C1)[C@H]2n1cc(-c2cnc(N)c(OC(F)(F)F)c2)nc1C1CC1` [Example 54, 1-((1R,5S)-6-(4-(6-amino-5-(trifluoromethoxy)pyridin-3-yl)-2-cyclopropyl-1H-imidazol-1-yl)-3-azabicyclo[3.1.0]hexan-3-yl)ethan-1-one] yielded a Kd of 110 nM.
For `CC(C)c1nc(-c2cnc(N)c(C(F)(F)F)c2)cn1C` [Example 21, 5-(2-isopropyl-1-methyl-1H-imidazol-4-yl)-3-(trifluoromethyl)pyridin-2-amine], the Kd was 640 nM.
Compound `Nc1ncc(-c2cn([C@H]3[C@@H]4CN(CC(F)F)C[C@@H]43)c(C3CC3)n2)cc1OC(F)(F)F` [Example 67, 5-(2-cyclopropyl-1-((1R,5S,6s)-3-(2,2-difluoroethyl)-3-azabicyclo[3.1.0]hexan-6-yl)-1H-imidazol-4-yl)-3-(trifluoromethoxy)pyridin-2-amine] has a Kd of 130 nM.
For `Nc1ncc(-c2cn([C@H]3[C@@H]4CN(C5COC5)C[C@@H]43)c(C3CCCC3)n2)cc1C(F)(F)F` [Example 62, 5-(2-cyclopentyl-1-((1R,5S,6s)-3-(oxetan-3-yl)-3-azabicyclo[3.1.0]hexan-6-yl)-1H-imidazol-4-yl)-3-(trifluoromethyl)pyridin-2-amine], the Kd was 85 nM.
In the case of `CC(=O)N1C[C@@H]2[C@H](C1)[C@H]2n1cc(-c2cnc(N)c(OC(F)(F)F)c2)nc1CC1CC1` [Example 91, 1-((1R,5S,6s)-6-(4-(6-amino-5-(trifluoromethoxy)pyridin-3-yl)-2-(cyclopropylmethyl)-1H-imidazol-1-yl)-3-azabicyclo[3.1.0]hexan-3-yl)ethan-1-one], the Kd is reported as 77 nM.
With `COCCN1C[C@@H]2[C@H](C1)[C@H]2n1cc(-c2cnc(N)c(OC(F)(F)F)c2)nc1CC1CC1` [Example 100, 5-(2-(cyclopropylmethyl)-1-((1R,5S,6s)-3-(2-methoxyethyl)-3-azabicyclo[3.1.0]hexan-6-yl)-1H-imidazol-4-yl)-3-(trifluoromethoxy)pyridin-2-amine] the Kd was 66 nM.
`CC(C)c1nc(-c2cnc(N)c(C(F)(F)F)c2)cn1C1COC1` [Example 29, 5-(2-isopropyl-1-(oxetan-3-yl)-1H-imidazol-4-yl)-3-(trifluoromethyl)pyridin-2-amine] was tested, and the Kd was 1000 nM.
